{
  "source": "patent US12239714B2",
  "about": "“Phosphatidylserine-binding conjugates” (CANBAS CO., LTD., priority 2021, dated 2025)",
  "key": {"[1]": {"test_system": "CT-26 mouse colon cancer cell line", "test": "Tumor growth curves of subcutaneously implanted CT-26 in syngeneic BALB/c mice (FIGS. 4A-4D)", "type": "in vivo", "conditions": "for mouse body weight, compared with the triple drug combination: 100 μg/mouse iv added to Cisplatin+CBP501+anti-CTLA4, data not shown; for CT26 tumor growth, conjugate added to Cisplatin+CBP501+anti-CTLA4 treatment: 100 μg/mouse iv, day 2×2, day 3×1", "method": "BALB/c mice were implanted subcutaneously with 5×10^5 cells mice colon cancer cell line, CT-26WT, at day −10 when the mice were at the age 6 weeks. Six mice made a group for each treatment when the average tumor size was 205 mm^3 (132-279 mm^3). Treatments were done as follows when the mice were at the age 8 weeks with body weight 19.5 to 24.5 g and tumor size were measured three times in a week.\nDosing schedule (“ip”: intraperitoneal injection; “iv”: intravenous injection): • Diphenhydramine (ip): 10 mg/kg (15 min before Cisplatin/CBP501 on day 1) • Cisplatin (iv): 4 mg/kg (day 1) • CBP501 (iv): 6 mg/kg (day 1) • Anti-CTLA4 antibody (ip) 200 μg/mouse (day2, 4) • TSA005,006 in saline (iv): 100 μg/mouse (day 2×2, day3×1) • TSA015 in HEPES (iv): 100 μg/mouse (day 2×2, day3×1) • Vehicle: saline (iv): 100 μL/mouse (day 2×2, day3×1) Distribution of the Cy5.5 Version of TSA006 (TSA013) in BALB/c Mouse. (FIG. 5)"}, "[2]": {"test_system": "CT26 colon cancer cell line", "test": "Syngeneic mice model, TSA005 (FIG. 1): growth of subcutaneous CT26 tumor", "type": "in vivo, BALB/c mice", "method": "All animal studies were conducted according to protocols approved by institutional animal care committee of CanBas Co., Ltd. Six-week-old female BALB/c mice (The Jackson Laboratories Japan, Inc., Kanagawa, Japan) were inoculated subcutaneously in a flank with a suspension of CT26WT cells (5×10^5 cells). Ten days later mice were apportioned into 5 groups (6-8 mice/group) and treatments were initiated on day1.\nThe first cycle of the treatments was on day 1 to 5 and the second cycle was on day 10 to 14 as follows.\nCisplatin: Intravenous injection (i.v.) of Cisplatin 4 mg/kg and 5% Glucose on Day 1 and 10. Saline i.v. on Days 2, 3, 11 and 12.\nCisplatin+CBP501: Cisplatin 4 mg/kg and CBP501 6 mg/kg i.v. on Day 1 and 10. Saline i.v. on Days 2, 3, 11 and 12.\nCisplatin+CBP501+anti-CTLA-4 antibody: anti-CTLA4 antibody 200 μg intraperitoneal injection (i.p.) on Days 1 and 5. Cisplatin 4 mg/kg and CBP501 6 mg/kg i.v. on Day 2.\nCisplatin+CBP501+anti-CTLA-4 antibody+TSA005: anti-CTLA4 antibody 200 μg i.p. on Days 1 and 5. Cisplatin 4 mg/kg and CBP501 6 mg/kg i.v. on Day 2. TSA005 100 μg i.v. twice on Day 3 and once on Day 4.\nDiphenhydramine 10 mg/kg was given i.p. 15 min before CBP501 or 5% Glucose treatment. The size of tumor was measured thrice weekly with a pair of calipers to calculate tumor volume by using the following formula: volume (mm^3)=[(width)^2 (mm)×length (mm)]/2.\nColon cancer cells from the CT26 cell line were subcutaneously inoculated in BALB/c mice 5×10^5 cells/mouse. The treatment was initiated on day 1, when the tumor sizes of 6-8 mice per test group attained an average size of about 200 mm^3. A cycle of the treatment schedule, dose and the route of treatment are detailed below. […]"}, "[3]": {"test_system": "CT26 colon cancer cell line", "test": "Syngeneic mice model, TSA005 compared to TSA009 (FIG. 2)", "type": "in vivo, BALB/c mice", "conditions": "100 μg i.v. twice on Day 3 and once on Day 4; one cycle", "method": "All animal studies were conducted according to protocols approved by institutional animal care committee of CanBas Co., Ltd. Six-week-old female BALB/c mice (The Jackson Laboratories Japan, Inc., Kanagawa, Japan) were inoculated subcutaneously in a flank with a suspension of CT26WT cells (5×10^5 cells). Ten days later, the mice were apportioned into 3 groups (6 mice/group) and treatments were initiated on Day 1.\nCisplatin+CBP501+anti-CTLA-4 antibody: anti-CTLA4 antibody 200 μg intraperitoneal injection (i.p.) on Days 3 and 5. Cisplatin 4 mg/kg and CBP501 6 mg/kg i.v. on Day 2. Saline i.v. twice on Day 3 and once on Day 4.\nCisplatin+CBP501+anti-CTLA-4 antibody+TSA005: anti-CTLA4 antibody 200 μg i.p. on Days 3 and 5. Cisplatin 4 mg/kg and CBP501 6 mg/kg i.v. on Day 2. TSA005 100 μg i.v. twice on Day 3 and once on Day 4.\nCisplatin+CBP501+anti-CTLA-4 antibody+TSA009: anti-CTLA4 antibody 200 μg i.p. on Days 3 and 5. Cisplatin 4 mg/kg and CBP501 6 mg/kg i.v. on Day 2. […] 100 μg i.v. twice on Day 3 and once on Day 4.\nDiphenhydramine 10 mg/kg was given i.p. 15 min before CBP501 or 5% Glucose treatment. The size of tumor was measured thrice weekly with a pair of calipers to calculate tumor volume by using the following formula: volume (mm^3)=[(width)2 (mm)×length (mm)]/2."}},
  "note": "“Also recorded” adds a separate entry of the source.",
  "data": [
    {"substance": "(GEGKGGr)4-K2-K-Cys(MI-CL264)-NH2 [TSA006]", "values": [
      {"measurement": "mouse body weight, compared with the triple drug combination", "setting": "[1]", "value": "did not change the mouse body weight further"},
      {"measurement": "CT26 tumor growth, conjugate added to Cisplatin+CBP501+anti-CTLA4 treatment", "setting": "[1]", "value": "further tumor growth suppression; also recorded: further suppressed the tumor growth"}
    ]},
    {"substance": "H-(D)p-benzoylphenylalanyl-(D)seryl-(D)tryptophanyl-(D)seryl-(D)pentafluorophenylalanyl-(D)cyclohexylalanyl-(D)arginyl-(D)arginyl- (D)arginyl-(D)glutaminyl-(D)arginyl-(D)arginine acetate salt [CBP501, reference compound]", "values": [
      {"measurement": "subcutaneous tumor growth, CBP501+cisplatin combination versus cisplatin alone", "setting": "[2]; Cisplatin 4 mg/kg and CBP501 6 mg/kg i.v. Day 1 and 10, CT26 in BALB/c mice, acetate salt", "value": "suppressed subcutaneous tumor growth much better than cisplatin alone"}
    ]},
    {"substance": "(TLVSSLr)8-K4-K2-K-Cys(MI-CL264)-NH2 [TSA009]", "values": [
      {"measurement": "CT26 subcutaneous tumor growth, conjugate added to CBP501+cisplatin+anti-CTLA4 antibody", "setting": "[3]", "value": "not and deleterious effect"}
    ]},
    {"substance": "(TLVSSLr)4-K2-K-Cys(MI-CL264)-NH2 [TSA005]", "values": [
      {"measurement": "tumor growth, TSA005 added to the CBP501+cisplatin combination", "setting": "[2]; TSA005 100 μg i.v. Days 2, 3, 11 and 12, two cycles", "value": "further suppressed the tumor growth; also recorded: further reduced the growth of the tumor"},
      {"measurement": "anti-tumor activity of TSA005 in combination with the two-drug or three-drug treatment regimen", "setting": "[2]; TSA005 100 μg i.v., with CBP501+cisplatin or CBP501+cisplatin+anti-CTLA-4 antibody", "value": "enhanced anti-tumor activity; also recorded: reduced tumor growth further than the triple drug combination"},
      {"measurement": "CT26 subcutaneous tumor growth, conjugate added to CBP501+cisplatin+anti-CTLA4 antibody", "setting": "[3]", "value": "suppressed CT26 subcutanous tumor growth more"},
      {"measurement": "mouse body weight, compared with the triple drug combination", "setting": "[1]", "value": "did not change the mouse body weight further"},
      {"measurement": "CT26 tumor growth, conjugate added to Cisplatin+CBP501+anti-CTLA4 treatment", "setting": "[1]", "value": "further tumor growth suppression; also recorded: further suppressed the tumor growth"}
    ]}
  ]
}
